Reference: patent US6093409A (Societe L'Oreal S.A., priority 1996, dated 2000)

Assay: "Hp-squalene" anti(singlet oxygen ^1 O2) test
Format: biochemical
Details: 0.03% solutions

C[C@@H]1O[C@@H](OC[C@H]2O[C@@H](Oc3c(-c4ccc(O)c(O)c4)oc4cc(O)cc(O)c4c3=O)[C@H](O)[C@@H](O)[C@@H]2O)[C@H](O)[C@H](O)[C@H]1O [Rutin]
% INHIBITION: 51%

COc1cc2c(CCNC(C)=O)c[nH]c2cc1O [6-Hydroxymelatonin]
% INHIBITION: ~78%
percentage of inhibition compared with melatonin and the other reference singlet-oxygen inhibitors (comparison in words): higher than that obtained for melatonin and the other reference singlet-oxygen inhibitors

CC1=C(/C=C/C(C)=C/C=C/C(C)=C/C=C/C=C(C)/C=C/C=C(C)/C=C/C2=C(C)C(=O)CCC2(C)C)C(C)(C)CCC1=O [Cantaxanthin]
% INHIBITION: 67%

CC1=C(/C=C/C(C)=C/C=C/C(C)=C/C=C/C=C(C)/C=C/C=C(C)/C=C/C2=C(C)C(=O)[C@@H](O)CC2(C)C)C(C)(C)C[C@H](O)C1=O [Astaxanthin]
% INHIBITION: 34%

O=c1c(O)c(-c2ccc(O)c(O)c2)oc2cc(O)cc(O)c12 [Quercetin]
% INHIBITION: 72%

CC1=C(/C=C/C(C)=C/C=C/C(C)=C/C=C/C=C(C)/C=C/C=C(C)/C=C/C2=C(C)CCCC2(C)C)C(C)(C)CCC1 [β-Carotene]
% INHIBITION: 62%
